Laboratory results published in ChEMBL document CHEMBL4304832, “Novel Pyrazole-Containing Compounds Active against Mycobacterium tuberculosis” (ACS Med Chem Lett, 2019).
Converted amounts (≈) assume the structure as drawn.

How the values were obtained:
[1] = test system: Mycobacterium tuberculosis; experiment: Antitubercular activity against Mycobacterium tuberculosis H37Rv incubated for 6 days by resazurin dye based fluorescence assay; assay type: functional; details: 144 h
[2] = Protection Index, ratio of CC50 for human HepG2 cells to MIC for Mycobacterium tuberculosis H37Rv; assay type: toxicity; details: read-out: PI
[3] = Chromatographic lipophilicity, log D of compound in PBS ay pH 7.4 by UV-HPLC analysis; assay type: physicochemical; details: PBS
[4] = target: Albumin (Homo sapiens, UniProt P02768); experiment: Binding affinity to HSA by HPLC analysis; assay type: ADME; details: isolated protein
Albumin, sequence (P02768 whole entry): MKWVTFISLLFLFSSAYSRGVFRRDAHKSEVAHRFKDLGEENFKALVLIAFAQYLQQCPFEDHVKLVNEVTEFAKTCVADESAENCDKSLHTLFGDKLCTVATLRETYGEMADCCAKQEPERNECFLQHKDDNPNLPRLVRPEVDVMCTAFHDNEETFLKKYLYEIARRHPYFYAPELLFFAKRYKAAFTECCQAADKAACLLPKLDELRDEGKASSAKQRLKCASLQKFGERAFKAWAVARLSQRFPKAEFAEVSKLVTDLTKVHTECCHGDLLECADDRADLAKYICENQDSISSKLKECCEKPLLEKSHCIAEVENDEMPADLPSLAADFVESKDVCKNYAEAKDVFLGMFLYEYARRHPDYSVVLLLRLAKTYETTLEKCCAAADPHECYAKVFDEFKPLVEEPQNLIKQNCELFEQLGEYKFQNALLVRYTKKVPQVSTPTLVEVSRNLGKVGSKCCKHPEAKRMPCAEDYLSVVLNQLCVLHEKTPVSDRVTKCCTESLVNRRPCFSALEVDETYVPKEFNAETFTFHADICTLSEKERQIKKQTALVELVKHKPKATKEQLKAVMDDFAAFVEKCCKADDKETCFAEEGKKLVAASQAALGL

[5] = Kinetic solubility of the compound in pH 7.4 phosphate buffered saline; assay type: physicochemical; details: read-out: Kinetic_solubility
[6] = Solubility of the compound in FASSIF at 1 mg incubated for 4 hrs by UPLC-MS analysis; assay type: physicochemical
[7] = Cytotoxicity against human HepG2 cells incubated for 48 hrs by CellTiter Glo assay; assay type: cell-based
[8] = target: Voltage-gated inwardly rectifying potassium channel KCNH2 (Homo sapiens, UniProt Q12809); experiment: Inhibition of human ERG
Voltage-gated inwardly rectifying potassium channel KCNH2, sequence (Q12809 whole entry): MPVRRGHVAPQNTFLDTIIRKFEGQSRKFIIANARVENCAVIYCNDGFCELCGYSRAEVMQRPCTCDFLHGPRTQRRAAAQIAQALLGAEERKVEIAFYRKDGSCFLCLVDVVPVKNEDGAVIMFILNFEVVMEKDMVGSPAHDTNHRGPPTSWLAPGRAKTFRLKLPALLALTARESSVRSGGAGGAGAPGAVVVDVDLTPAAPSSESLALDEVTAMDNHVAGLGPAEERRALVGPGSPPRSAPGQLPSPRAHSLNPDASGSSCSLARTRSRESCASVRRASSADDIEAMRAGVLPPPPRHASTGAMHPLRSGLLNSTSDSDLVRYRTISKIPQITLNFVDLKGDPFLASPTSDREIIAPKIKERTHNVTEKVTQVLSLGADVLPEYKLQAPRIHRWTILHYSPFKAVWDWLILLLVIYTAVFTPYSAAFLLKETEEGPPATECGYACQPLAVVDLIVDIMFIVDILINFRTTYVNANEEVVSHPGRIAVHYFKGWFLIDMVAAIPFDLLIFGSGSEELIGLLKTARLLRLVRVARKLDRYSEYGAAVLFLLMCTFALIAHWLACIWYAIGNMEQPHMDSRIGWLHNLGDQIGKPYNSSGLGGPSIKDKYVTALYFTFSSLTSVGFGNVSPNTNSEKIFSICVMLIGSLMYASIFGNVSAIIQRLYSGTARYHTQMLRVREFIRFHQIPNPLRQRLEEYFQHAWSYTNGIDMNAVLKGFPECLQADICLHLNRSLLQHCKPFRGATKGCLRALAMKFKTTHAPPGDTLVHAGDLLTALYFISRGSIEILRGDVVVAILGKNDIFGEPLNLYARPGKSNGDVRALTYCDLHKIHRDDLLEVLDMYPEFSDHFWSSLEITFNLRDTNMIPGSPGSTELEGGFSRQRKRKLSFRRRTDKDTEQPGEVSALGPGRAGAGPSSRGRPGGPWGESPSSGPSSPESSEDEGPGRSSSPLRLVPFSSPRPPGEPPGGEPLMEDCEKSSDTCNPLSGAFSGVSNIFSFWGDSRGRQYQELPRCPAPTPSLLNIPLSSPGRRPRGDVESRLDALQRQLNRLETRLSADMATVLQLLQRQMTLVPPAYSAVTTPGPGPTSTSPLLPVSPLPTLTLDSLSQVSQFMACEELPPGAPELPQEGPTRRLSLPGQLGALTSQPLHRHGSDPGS

[9] = Permeability of the compound in pH 7.05 phosphate buffer incubated for 3 hrs by artificial membrane permeability assay based LCMS analysis; assay type: ADME; details: PAMPA, read-out: permeability

Structure (SMILES)	MIC [1] [µM]	selectivity ratio [2]	chromatographic logD [3]	Activity [4] [%]	solubility kinetic [5] [µM]	solubility at 4 h [6] [µg/mL]	CC50 at 48 h [7] [µM]	IC50 [8] [µM]	Papp at 3 h [9] [×10⁻⁶ cm/s]
Cc1c(CN2CCOCC2)cc(-c2ccc(C(C)C)cc2)n1-c1ccc(F)cc1	0.12 (≈ 0.0471 µg/mL)	333	8.1	98.37	< 1	5 (≈ 12.7 µM)	–	–	–
CC(C)n1nc(CN2CCOCC2)cc1-c1ccc(C(F)(F)F)cc1	23 (≈ 8.13 µg/mL)	> 4	–	–	–	–	> 100	–	–
COC1CCN(Cc2cc(-c3ccc(C(F)(F)F)cc3)n(C(C)C)n2)CC1	2.5 (≈ 0.954 µg/mL)	32	–	–	–	–	79.4	–	–
COC1CCCN(Cc2cc(-c3ccc(C(C)C)cc3)n(-c3ccc(F)cc3)n2)C1 (stereo unspecified)	2.4 (≈ 0.978 µg/mL)	13	–	–	–	–	32	–	–
CC(C)c1ccc(-c2cc(CN3CCOCC3)nn2-c2ccc(F)cc2)cc1	5 (≈ 1.9 µg/mL)	10	–	–	–	–	50.1	–	–
CC(C)c1ccc(-c2cc(CN3CC[Si](C)(C)CC3)nn2C2CCCCC2)cc1	0.04 (≈ 0.0164 µg/mL)	315	–	97.35	46 (≈ 18.8 µg/mL)	–	12.6	8	–
CC(C)c1ccc(-c2cc(CN3CCC(O)CC3)nn2-c2ccc(F)cc2)cc1	10 (≈ 3.94 µg/mL)	2	–	–	–	–	20	–	–
COC1CCN(Cc2cc(-c3ccc(C(F)(F)F)cc3)n(C3CCCCC3)n2)CC1	1.2 (≈ 0.506 µg/mL)	26	–	–	–	–	31.6	–	–
Cc1cc(CN2CCOCC2)nn1C1CCCCC1	2.5 (≈ 0.658 µg/mL)	20	–	–	–	–	50	–	–
CC(C)(C)OC(=O)N1CCN(Cc2cc(-c3ccc(C(F)(F)F)cc3)n(C3CCCCC3)n2)CC1	2 (≈ 0.985 µg/mL)	> 50	–	–	–	–	> 100	–	–
CC(C)c1ccc(-c2cc(CN3CCN(C(=O)OC(C)(C)C)CC3)nn2C2CCCCC2)cc1	1 (≈ 0.467 µg/mL)	40	–	–	–	–	40	–	–
Fc1ccc(-n2nc(CN3CCOCC3)cc2-c2ccc(C(F)(F)F)cc2)cc1	20 (≈ 8.11 µg/mL)	5	–	–	–	–	100	–	–
CC(C)c1ccc(-c2cc(CN3CCC(O)CC3)nn2C2CCCCC2)cc1	42 (≈ 16 µg/mL)	1.5	–	–	–	–	63	–	–
COC1CCN(Cc2cc(-c3ccc(C(C)C)cc3)n(C3CCCCC3)n2)CC1	0.6 (≈ 0.237 µg/mL)	21	–	–	–	–	12.6	–	–
CC(C)c1ccc(-c2cc(CN3CCCC(O)C3)nn2-c2ccc(F)cc2)cc1 (stereo unspecified)	20 (≈ 7.87 µg/mL)	1.25	–	–	–	–	25.1	–	–
CC(C)c1ccc(-c2cc(CN3CCN(C)CC3)nn2C2CCCCC2)cc1	21 (≈ 7.99 µg/mL)	0.5	–	–	–	–	10	–	–
CC(C)(C)OC(=O)N1CCN(Cc2cc(-c3ccc(C(F)(F)F)cc3)n(-c3ccc(F)cc3)n2)CC1	4 (≈ 2.02 µg/mL)	> 25	–	–	–	–	> 100	–	–
CC(C)c1ccc(-c2cc(CN3CCOCC3)nn2C2CCCOC2)cc1 (stereo unspecified)	2 (≈ 0.739 µg/mL)	> 50	–	–	–	–	> 100	–	–
Cc1c(CN2CCOCC2)nc(-c2ccc(C(C)C)cc2)n1-c1ccc(F)cc1	40 (≈ 15.7 µg/mL)	1.25	–	–	–	–	50.1	–	–
FC(F)(F)c1ccc(-c2cc(CN3CCOCC3)nn2C2CCCCC2)cc1	2.5 (≈ 0.984 µg/mL)	20	–	–	–	–	50	–	–
CC(C)c1ccc(-c2cc(CN3CCCC(O)C3)nn2C(C)C)cc1 (stereo unspecified)	1 (≈ 0.341 µg/mL)	50	–	–	–	–	50	–	–
CC(C)c1ccc(-c2cc(CN3CCSCC3)nn2C2CCCCC2)cc1	1.3 (≈ 0.499 µg/mL)	31	–	–	–	–	40	–	–
FC(F)(F)c1ccc(-c2cc(CN3CCSCC3)nn2C2CCCCC2)cc1	1.2 (≈ 0.491 µg/mL)	53	–	–	–	–	63.1	–	–
COC1CCN(Cc2cc(-c3ccc(C(F)(F)F)cc3)n(-c3ccc(F)cc3)n2)CC1	0.3 (≈ 0.13 µg/mL)	105	6.67	96.47	258 (≈ 112 µg/mL)	–	31.6	3.2	17
COC1CCCN(Cc2cc(-c3ccc(C(C)C)cc3)n(C3CCCCC3)n2)C1 (stereo unspecified)	2.5 (≈ 0.989 µg/mL)	8	–	–	–	–	20	–	–
